Data published in patent US9517244B2, “Therapeutic combinations for use in neoplasia” (University of Florida Research Foundation, Inc., priority 2011, dated 2016).

Tests used:
[1] = system: Mia-PaCa2; assay: MTT assay, pancreatic cancer cell line; type: cell-based, human; settings: Homo sapiens, MIA PaCa-2; Mia-PaCa2 (dFdC-resistant); single agent; 72 h; read-out: IC50
[2] = system: MiaPaCa2-Lu tumors; assay: orthotopic MiaPaCa2-Lu tumors in athymic mice, tumor luciferase expression; type: in vivo; settings: combination treatment of NSC-30049 and CDDP
Text: FIG. 8A depicts in situ imaging of orthotopic MiaPaCa2-Lu tumors growing in female athymic (nu/nu) mice.

[3] = target: Pol-β (Homo sapiens, UniProt P06746); assay: Pol-β-directed strand-displacement synthesis, reconstituted in vitro assay; type: biochemical; settings: 0.5, 1, 2.5 and 5 μM
Protocol: Lanes 4-7 contained increasing concentrations of NSC-30049 (0.5, 1, 2.5, and 5 μM, respectively). The arrows indicate the positions of the 63-mer substrate and the products. […] Data are representative of three different experiments.

[4] = system: AsPC1; assay: MTT assay, pancreatic cancer cell line; type: cell-based, human; settings: Homo sapiens; AsPC1 (dFdC-resistant); single agent; 72 h; read-out: IC50
[5] = system: human parental cancer cells; assay: cell growth inhibition of parental cancer cells; type: cell-based; settings: Homo sapiens, 72 h
Protocol: Cells were treated with 1.25 μM of NSC-30049 and 1.25 μM of OPT either alone or in combination for 72 h. Data are mean±SD of triplicate experiments. […] Cells were treated with 1.25 μM of NSC-30049 and 1.25 μM of OPT either alone or in combination for 72 h. Fold change in gene expression values is shown as mean±SD of three experiments and are normalized to GAPDH gene expression.
The effect of administration of NSC-30049 in combination with oxaliplatin (OPT) was also examined in human parental cancer cells and colon cancer stem cells (FIG. 9A). Cells were treated with 1.25 μM of NSC-30049 and […] of OPT either alone or in combination for 72 h. Cell growth inhibition was assayed. Data presented are mean±SD of triplicate experiments.

[6] = target: APE1 (Homo sapiens, UniProt P27695); assay: in vitro APE1 activity assay with purified APE1 and 32P-labeled 63-mer F-DNA; type: biochemical
Text: FIGS. 4A and 4B depict the screening of small molecules. FIG. 4A depicts an in vitro assay system to determine the effect of compounds on the blockage of APE1-activity using purified APE1 and ^32P-labeled 63-mer F-DNA. FIG. 4B is a gel depicting the effect of the small molecules on APE1 activity. […] Data are representative of duplicate experiments.
FIG. 5A depicts an in vitro assay protocol using purified APE1 protein. FIG. 5B is an image of a gel showing a dose-dependent effect of NSC-30049 on APE1 activity. […] FIG. 5C is a graph depicting the percent cleavage and the IC50 of NSC-30049 to block APE1 activity, showing that APE1 is blocked in a dose-dependent manner. Data is mean±SE of three different experiments.
To determine the effect of compounds on the blockage of APE1 activity, an in vitro assay system was developed using purified APE1 and ^32P-labeled 63-mer F-DNA (FIG. 4A). Several small molecules (NSC-9746, NSC-18468, NSC-2137, NAC-30049 and NSC-32895) were screened for their ability to inhibit APE1 activity in the in vitro assay (FIG. 4B).

Chain of APE1 (P27695 whole entry): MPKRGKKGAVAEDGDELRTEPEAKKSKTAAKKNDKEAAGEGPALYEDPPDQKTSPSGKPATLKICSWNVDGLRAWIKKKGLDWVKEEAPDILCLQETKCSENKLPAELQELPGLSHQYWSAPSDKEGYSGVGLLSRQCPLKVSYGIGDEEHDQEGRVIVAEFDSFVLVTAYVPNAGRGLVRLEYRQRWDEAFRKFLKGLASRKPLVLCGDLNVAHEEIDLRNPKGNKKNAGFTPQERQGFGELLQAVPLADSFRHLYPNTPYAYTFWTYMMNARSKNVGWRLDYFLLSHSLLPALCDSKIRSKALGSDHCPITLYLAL

Q: With `ClCC=CC[N+]12CN3CN(CN(C3)C1)C2` [NSC-30049, 1-(4-Chloro-2-butenyl)-1λ˜5˜,3,5,7-tetraazatricyclo[3.3.1.1˜3,7˜]decane] as the compound, how does the IC50 [1] read?
A: The IC50 was 5.12 ± 0.22 µM.

Q: What about the “inhibition of tumor growth (tumor luciferase expression)” value [2] of the same compound?
A: The value was “synergistic effect on the inhibition of MiaPaCa2-Lu tumor growth”.

Q: And the “effect on Pol-β-directed strand-displacement synthesis” value [3]?
A: Its value is “did not affect Pol-β-directed strand-displacement synthesis”.

Q: What about the IC50 [4] of the same compound?
A: Its IC50 is 1.88 ± 0.11 µM.

Q: What about the inhibition at 1.25 µM ([5]; 1.25 μM NSC-30049 in combination with 1.25 μM oxaliplatin) of the same compound?
A: The inhibition at 1.25 µM was ~70%.

Q: What about the inhibition at 1.25 µM ([5]; alone, 1.25 μM) of the same compound?
A: The inhibition at 1.25 µM was ~20%.

Q: What about the “inhibition of APE1 activity in screen” value ([6]; 5, 10, 20 and 40 μM) of the same compound?
A: The value was “inhibit APE1 activity in the in vitro assay at all concentrations tested”.

Q: What about the IC50 ([6]; purified APE1, read-out: IC50 to block APE1 activity) of the same compound?
A: The IC50 was 0.0072 µM.
